According to PubChem BioAssay (NCI):
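Where inhibition never reached the appropriate level, the endpoint shown equals the highest concentration tested. Otherwise, values were interpolated linearly from a five-concentration, 48-hour dose response in 96-well plates. TGI: concentration producing complete growth inhibition.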

Key:
Assay in all cases: DTP human tumour cell line panel, 48 h
NCI-H460 lung = tested on: NCI-H460 lung
A498 renal = tested on: A498 renal
COLO 205 colon = tested on: COLO 205 colon
SNB-78 CNS = tested on: SNB-78 CNS
DLD-1 colon = tested on: DLD-1 colon
HOP-18 NSCLC = tested on: HOP-18 NSCLC
KM20L2 colon = tested on: KM20L2 colon
LXFL 529 NSCLC = tested on: LXFL 529 NSCLC
DMS 114 small cell lung = tested on: DMS 114 small cell lung
DMS 273 small cell lung = tested on: DMS 273 small cell lung
M19-MEL melanoma = tested on: M19-MEL melanoma
XF 498 CNS = tested on: XF 498 CNS

SMILES | TGI (NCI-H460 lung) [µM] | TGI (A498 renal) [µM] | TGI (COLO 205 colon) [µM] | also measured
O=C(O)Cc1ccc(Nc2nc3ccccc3nc2C(=O)O)cc1 | > 100 | > 100 | > 100 | 
Cc1ccc(/C=C/C(=N/NC(=O)N/N=C(/C=C/c2ccc(C)cc2)C(C)C)C(C)C)cc1 | > 10 |  | > 10 | 
c1csc(-c2nccc3c2[nH]c2ccccc23)c1 | 57 | 33.9 | 28.9 | 
CC(=O)N1c2ccccc2C2=NN(C)C(=N)SC21 (configuration not stated) | > 100 | > 100 | > 100 | 
CN(CCNC(=O)c1c[nH]c2c1ccc1ccccc12)CCNC(=O)c1c[nH]c2c1ccc1ccccc12 | 4.13 | 8.47 | 3.24 | 
CNC(=O)N(CCC#N)CCN(C(=O)N(C)C)c1ccccc1 | > 100 | > 100 | > 100 | 
CC1=NN(c2nc(N)nc(CSc3cc(Cl)c(C)cc3S(N)(=O)=O)n2)C(C)(C)C1 | > 10 | > 10 | > 10 | 
O=[N+]([O-])C1=Cc2cc(Cl)ccc2OC1c1cccc2ccccc12 (configuration not stated) | 5.28 | 3.9 | 6.71 | 
O=c1[nH]nc(-c2ccccc2)n1/N=C/c1ccco1 | > 100 | > 100 | > 100 | 
COc1cc2oc(=O)cc(C)c2c(OC)c1O |  | 94.8 | > 100 | 
CCOc1ccccc1NC(=O)C(=O)C(/C(=N/N)C(=O)OC)c1nc2ccc([N+](=O)[O-])cc2[nH]c1=O (configuration not stated) | > 100 | > 100 |  | 
O=C1NC(N2CCCC(CO)C2)=N/C1=C\c1ccccc1 (configuration not stated) |  |  | > 100 | 
COc1ccc(C2C(C#N)=C(S)N(C3OC(COC(C)=O)C(OC(C)=O)C(OC(C)=O)C3OC(C)=O)C(C)=C2C(C)=O)cc1 (configuration not stated) | > 100 |  | > 100 | 
O=C(c1ccco1)N(C(=S)N1CCN(c2ccccc2)CC1)C1CCCCC1 | > 100 |  | > 100 | TGI (SNB-78 CNS): > 100 µM; TGI (DLD-1 colon): > 100 µM; TGI (HOP-18 NSCLC): > 100 µM; TGI (KM20L2 colon): > 100 µM; TGI (LXFL 529 NSCLC): > 100 µM; TGI (DMS 114 small cell lung): > 100 µM; TGI (DMS 273 small cell lung): > 100 µM; TGI (M19-MEL melanoma): > 100 µM
CSc1nc(Nc2ccccc2Cl)c2c(N)nn(C)c2n1 | > 100 | > 100 | > 100 | 
O=C(/C=C/c1ccc(OCc2ccccc2)cc1)NCc1ccc(C(=O)NCCc2c[nH]c3ccccc23)cc1 | > 100 | > 100 | > 100 | 
O=C(O)c1nc2ccc(Cl)cc2[nH]c1=O | > 100 | > 100 | > 100 | 
O=C1CNC(=O)/C(=C/c2c[nH]c3ccccc23)N1 | > 100 | > 100 |  | 
Cc1ccc(S(=O)(=O)NC(=O)Nc2cccc(S(N)(=O)=O)c2)cc1 | > 100 | > 100 | > 100 | 

SMILES | TGI (NCI-H460 lung) [µM] | TGI (A498 renal) [µM] | TGI (COLO 205 colon) [µM] | also measured
COc1ccc2c(c1)CC1COc3cc(OC)ccc3C1O2 (configuration not stated) |  | > 100 | > 100 | 
S=C=Nc1ccc(CSc2nc3ccccc3[nH]2)cc1 | 40.4 | 46 | 29 | 
CC(C)=NNc1snnc1C(N)=O |  | > 100 | > 100 | 
C[C@@H]1[C@H](O)CC2=C(CC[C@@H](O)C2(C)C)[C@@]1(CO)CCc1ccoc1 | > 50 | > 50 | > 50 | 
Cc1ccc(S(=O)(=O)N2CCCSCCSCCCN(S(=O)(=O)c3ccc(C)cc3)CC2)cc1 | > 100 | > 100 | > 100 | 
CNCCCNC(=S)Cn1cc(C)c(=O)[nH]c1=O | > 67.3 | > 74.8 | > 69.9 | 
O=c1cc(-c2ccccc2)[nH]c2ccc(S)cc12 | > 100 |  | > 100 | 
O=C(CC(O)(C(F)(F)F)C(F)(F)Cl)CC(O)(C(F)(F)F)C(F)(F)Cl (configuration not stated) | 8.85 | 9.22 | 3.07 | 
CCO/S(=N/S(=O)(=O)c1ccccc1)c1ccccc1[N+](=O)[O-] (configuration not stated) | > 100 |  | > 100 | TGI (DLD-1 colon): > 100 µM; TGI (HOP-18 NSCLC): > 100 µM; TGI (XF 498 CNS): > 100 µM; TGI (KM20L2 colon): > 100 µM; TGI (LXFL 529 NSCLC): > 100 µM; TGI (DMS 114 small cell lung): > 100 µM; TGI (DMS 273 small cell lung): > 100 µM; TGI (M19-MEL melanoma): > 100 µM
[N-]=[N+]=NC1(c2ccccc2)C(=O)C(Cl)=C(c2ccccc2)N(c2ccccc2)C1=O (configuration not stated) | > 100 | > 100 | > 100 | TGI (SNB-78 CNS): > 100 µM; TGI (DLD-1 colon): > 100 µM; TGI (HOP-18 NSCLC): > 100 µM; TGI (KM20L2 colon): > 100 µM; TGI (LXFL 529 NSCLC): > 100 µM; TGI (DMS 114 small cell lung): > 100 µM; TGI (DMS 273 small cell lung): > 100 µM; TGI (M19-MEL melanoma): > 100 µM
Cc1csc(NNC(N)=O)n1 | > 100 |  | > 100 | 
CCOC(=O)C(C)Sc1nnc(COc2ccc(Cl)cc2)n1-c1ccccc1 (configuration not stated) | 31.6 |  | 33.2 | TGI (SNB-78 CNS): 95.2 µM; TGI (DLD-1 colon): 35.1 µM; TGI (HOP-18 NSCLC): > 100 µM; TGI (KM20L2 colon): 33 µM; TGI (LXFL 529 NSCLC): 30.4 µM; TGI (DMS 273 small cell lung): 29.9 µM; TGI (M19-MEL melanoma): 34.9 µM
O=C(c1cccc2ccccc12)C1S(=O)(=O)OCCOS1(=O)=O | > 100 |  | > 100 | 
COC(=O)[C@H](Cc1ccccc1)NC(=O)N(CCC#N)CCCCN(CCC#N)C(=O)N[C@@H](Cc1ccccc1)C(=O)OC | > 100 | > 100 | > 100 | 
O=C1c2c(Br)sc(Br)c2[C@@H](Cl)[C@H]1Cl | 40.9 | > 100 | 31.8 | 
NC(=O)CN1CC(C2=C(O)CN(CC(N)=O)C2=O)=CC1=O | > 100 | > 100 | > 100 | 
CCOC(=O)/C(=C\NC(C)(C)C)c1nc2ccccc2[nH]1 | 37.3 | 57.3 | 33.7 | 
Cn1c(=O)c2sc3c4sc5c(=O)n(C)c6ccccc6c5c4sc3c2c2ccccc21 | > 100 | > 100 | > 100 | 
